pIC50: −log10 of the molar value. Where a name gives a salt, the structure may show the parent alone.

In assay [1] the target is T1, human Tie2 (Homo sapiens, UniProt Q02763).
T1 construct: amino acids of the intracellular domain 776-1124; made in house; host or cells: baculovirus expression (pFastBacGT)
Put plainly: test of phosphorylation of PLC with Tie2 (GST-Tie2). Format: biochemical. The note with it: Table 1; unit inferred; read-out: Tie2 (concentration that inhibits 50% of the kinase activity). The protocol:
The coding sequence of human Tie2 corresponding to the amino acids of the intracellular domain 776-1124 was generated by PCR using the cDNA isolated from a human placenta as a model. This sequence was introduced into a pFastBacGT baculovirus expression vector in the form of a GST fusion protein.
The inhibitory effect of the molecules is determined in a test of phosphorylation of PLC with Tie2 in the presence of GST-Tie2 purified to about 80% homogeneity. The substrate is composed of the SH2-SH3 fragments of PLC expressed in the form of a GST fusion protein.
The kinase activity of Tie2 is measured in a MOPS 20 mM pH 7.2 buffer, containing 10 mM MgCl2, 10 mM MnCl2, 1 mM DTT, 10 mM of glycerophosphate. In a 96-well FlashPlate plate maintained on ice, a reaction mixture is deposited, composed of 70 μL of kinase buffer containing 100 ng of enzyme GST-Tie2 per well. Next, 10 μL of the test molecule diluted in DMSO to a maximum concentration of 10% are added. For a given concentration, each measurement is performed four times. The reaction is initiated by adding 20 μl of solution containing 2 μg of GST-PLC, 2 μm of cold ATP and 1 μCi of δ^33P[ATP]. After incubation for one hour at 37° C., the reaction is stopped by adding 1 volume (100 μl) of 200 mM EDTA. After removal of the incubation buffer, the wells are washed three times with 300 μL of PBS. The radioactivity is measured on a MicroBeta 1450 Wallac.
The inhibition of the Tie2 activity is calculated and expressed as a percentage of inhibition relative to the control activity determined in the absence of compound.

Assay [2] addresses T2, human KDR enzyme (Homo sapiens, UniProt P35968).
T2 construct: The cytoplasmic domain of the human KDR enzyme was cloned in the form of a GST fusion; GST; made in house; host or cells: SF21 insect cells (baculovirus, pFastBac)
Put plainly: in vitro test of phosphorylation of substrate with the enzyme KDR (scintillation technique). Type of assay: biochemical. The note with it: Table 1; unit inferred; read-out: KDR (concentration that inhibits 50% of the kinase activity). The protocol:
Determination of the Activity of the Compounds—Experimental Protocols 1. KDR
The inhibitory effect of the compounds is determined in an in vitro test of phosphorylation of substrate with the enzyme KDR via a scintillation technique (96-well plate, NEN).
The cytoplasmic domain of the human KDR enzyme was cloned in the form of a GST fusion in the pFastBac baculovirus expression vector. The protein was expressed in the SF21 cells and purified to about 60% homogeneity.
The KDR kinase activity is measured in 20 mM MOPS, 10 mM MgCl2, 10 mM MnCl2, 1 mM DTT, 2.5 mM EGTA, 10 mM b-glycerophosphate, pH=7.2, in the presence of 10 mM MgCl2, 100 μm Na3VO4, 1 mM NaF. 10 μl of the compound are added to 70 μl of kinase buffer containing 100 ng of KDR enzyme at 4° C. The reaction is initiated by adding 20 μl of solution containing 2 μg of substrate (SH2-SH3 fragment of PLCγ expressed in the form of a GST fusion protein), 2 μCi of γ^33P[ATP] and 2 μm of cold ATP. After incubation for 1 hour at 37° C., the reaction is stopped by adding 1 volume (100 μl) of 200 mM EDTA. The incubation buffer is removed, and the wells are washed three times with 300 μl of PBS. The radioactivity in each well is measured using a Top Count NXT radioactivity counter (Packard).
The background noise is determined by measuring the radioactivity in four different wells containing radioactive ATP and the substrate alone.
A total activity control is measured in four different wells containing all the reagents (γ^33P—[ATP], KDR and substrate PLCγ), but in the absence of compound.
The inhibition of the KDR activity with the compound of the invention is expressed as a percentage of inhibition of the control activity determined in the absence of compound.
Compound SU5614 (Calbiochem) (1 μM) is included in each plate as an inhibition control.

T1 sequence (Q02763 776-1124): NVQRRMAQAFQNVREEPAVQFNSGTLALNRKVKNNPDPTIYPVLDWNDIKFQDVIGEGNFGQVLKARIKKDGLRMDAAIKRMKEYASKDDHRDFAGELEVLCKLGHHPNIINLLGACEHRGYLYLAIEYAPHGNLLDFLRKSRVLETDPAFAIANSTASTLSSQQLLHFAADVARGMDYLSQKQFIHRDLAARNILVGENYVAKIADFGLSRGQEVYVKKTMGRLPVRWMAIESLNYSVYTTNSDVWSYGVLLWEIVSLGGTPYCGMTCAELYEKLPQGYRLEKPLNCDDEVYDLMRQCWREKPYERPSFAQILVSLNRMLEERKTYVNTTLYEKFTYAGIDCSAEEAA
T2 sequence (P35968 786-1356 limits assumed): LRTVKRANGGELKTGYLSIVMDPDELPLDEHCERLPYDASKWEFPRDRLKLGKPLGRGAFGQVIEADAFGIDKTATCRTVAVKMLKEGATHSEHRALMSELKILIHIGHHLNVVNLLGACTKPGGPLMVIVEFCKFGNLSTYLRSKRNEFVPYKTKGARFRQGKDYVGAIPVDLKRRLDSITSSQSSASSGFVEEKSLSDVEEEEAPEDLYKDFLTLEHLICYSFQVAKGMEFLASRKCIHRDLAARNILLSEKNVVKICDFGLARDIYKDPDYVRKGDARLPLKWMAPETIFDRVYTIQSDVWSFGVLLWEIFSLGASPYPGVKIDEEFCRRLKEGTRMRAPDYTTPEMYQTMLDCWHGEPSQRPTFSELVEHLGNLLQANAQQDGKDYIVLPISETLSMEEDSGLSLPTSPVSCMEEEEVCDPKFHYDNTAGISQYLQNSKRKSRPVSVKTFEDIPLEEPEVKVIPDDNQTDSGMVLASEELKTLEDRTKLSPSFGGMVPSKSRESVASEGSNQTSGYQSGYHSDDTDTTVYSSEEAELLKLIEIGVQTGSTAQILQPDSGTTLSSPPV

For the compound `NC(=O)c1n[nH]cc1NCc1cccc(NC(=O)Nc2cc(C(F)(F)F)ccc2F)c1` [Example 2a, 4-{[3-({[2-fluoro-5-(trifluoromethyl)phenyl]carbamoyl}amino)benzyl]-amino}-1H-pyrazole-3-carboxamide trifluoroacetate], the results for the pIC50 in assay [1] and in assay [2] were 7.70 and 8.10, respectively.
The corresponding values for `NC(=O)c1n[nH]cc1NCc1cccc(NC(=O)Nc2cc(F)cc(C(F)(F)F)c2)c1` [Example 7, 4-{[3-({[3-fluoro-5-(trifluoromethyl)phenyl]carbamoyl}amino)benzyl]-amino}-1H-pyrazole-3-carboxamide trifluoroacetate] are 7.14 and 8.35.
For `COC(=O)c1cccc(NC(=O)Nc2cccc(CNc3c[nH]nc3C(N)=O)c2)c1` [Example 9, Methyl 3-{[(3-{[(3-carbamoyl-1H-pyrazol-4-yl)-amino]methyl}phenyl)-carbamoyl]amino}benzoate trifluoroacetate], the pIC50 in assay [1] was 5.35; in assay [2], 7.66.
As for `COc1cc(NC(=O)Nc2cccc(CNc3c[nH]nc3C(N)=O)c2)cc(OC)c1` [Example 13, 4-[(3-{[(3,5-dimethoxyphenyl)carbamoyl]amino}benzyl)amino]-1H-pyrazole-3-carboxamide trifluoroacetate], the pIC50 in assay [1] is 5.84; in assay [2], 7.93.
The corresponding values for `COC(=O)c1n[nH]cc1NCc1cccc(NC(=O)Nc2cc(C(F)(F)F)ccc2F)c1` [Example 32, Methyl 4-{[3-({[2-fluoro-5-(trifluoromethyl)phenyl]carbamoyl}amino)-benzyl]amino}-1H-pyrazole-3-carboxylate trifluoroacetate] are 6.00 and 7.19.

The record behind these values is US8420824B2, “Substituted pyrazoles, compositions containing these, method of production and use” (Sanofi, priority 2006, dated 2013).
